Calls of active or inactive are those of the source. The calls are words filed in the database; no cut-off is given here.
Columns and labels:
[1] = AUC (0 to t) in ICR mouse at 50 mg/kg, po; format: ADME, organism-based; design: dose 50 mg/kg, route oral; settings: plasma
Mus musculus [2] = test: Hypoglycemic activity in ICR mouse assessed as decrease in blood glucose level at 50 mg/kg, po after 2 hrs by OGTT relative to control; format: functional
[3] = Tmax in ICR mouse at 50 mg/kg, po; format: ADME, organism-based; design: dose 50 mg/kg, route oral; settings: in vivo
[4] = Cmax in ICR mouse at 50 mg/kg, po; format: ADME, organism-based; design: dose 50 mg/kg, route oral; settings: in vivo
[5] = molecular target: T1, Peroxisome proliferator-activated receptor gamma (Homo sapiens) (UniProt P37231); test: Activation of PPAR-gamma (unknown origin) transfected in human U2OS cells assessed as increase in transcriptional activity at 10^-6 M after 24 hrs by luciferase reporter gene assay relative to rosiglitazone; format: cell-based
T1 sequence (whole entry): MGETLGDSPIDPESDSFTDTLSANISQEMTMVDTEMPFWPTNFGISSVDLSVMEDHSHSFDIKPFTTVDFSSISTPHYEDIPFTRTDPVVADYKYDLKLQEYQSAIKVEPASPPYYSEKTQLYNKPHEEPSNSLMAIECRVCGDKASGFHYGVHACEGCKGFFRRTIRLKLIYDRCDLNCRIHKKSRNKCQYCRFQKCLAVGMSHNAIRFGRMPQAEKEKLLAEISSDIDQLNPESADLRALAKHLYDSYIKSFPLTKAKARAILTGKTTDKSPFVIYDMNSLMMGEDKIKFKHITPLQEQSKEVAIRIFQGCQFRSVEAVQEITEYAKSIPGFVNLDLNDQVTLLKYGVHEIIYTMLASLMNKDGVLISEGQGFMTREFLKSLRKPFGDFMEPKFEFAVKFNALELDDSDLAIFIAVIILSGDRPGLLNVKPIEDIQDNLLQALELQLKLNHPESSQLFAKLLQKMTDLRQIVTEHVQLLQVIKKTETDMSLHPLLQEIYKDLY

[6] = MRT (0 to t) in ICR mouse at 50 mg/kg, po; format: ADME, organism-based; design: dose 50 mg/kg, route oral; settings: in vivo
Mus musculus [7] = test: Hypoglycemic activity in ICR mouse assessed as decrease in blood glucose level at 50 mg/kg, po after 4 hrs by OGTT relative to control; format: functional
Mus musculus [8] = test: Hypoglycemic activity in ICR mouse assessed as reduction of blood glucose AUC (0 to 120 mins) at 50 mg/kg, po qd administered for 3 days followed by glucose challenge for 40 mins on day 3 post last dose by OGTT relative to control; format: functional; design: scale not given: the % may be the effect or the level left
Homo sapiens = species: Homo sapiens; test: Selectivity for PPAR-gamma (unknown origin) over PPAR-alpha (unknown origin)
Mus musculus [9] = test: Hypoglycemic activity in ICR mouse assessed as decrease in blood glucose level at 50 mg/kg, po after 6 hrs by OGTT relative to control; format: functional; design: scale not given: the % may be the effect or the level left
[10] = molecular target: T1, Peroxisome proliferator-activated receptor gamma (Homo sapiens); test: Activation of PPAR-gamma (unknown origin) transfected in human U2OS cells assessed as increase in transcriptional activity at 10^-6 M after 24 hrs by luciferase reporter gene assay; format: cell-based

Q: Which AUC(0-t) [1] does the source give for `CCCCCN(C(=O)Nc1nccs1)c1ccc(OC(C)(C)C(=O)O)cc1` here?
A: The AUC(0-t) was 98000 ng·h/mL.

Q: And the Activity (Mus musculus [2])?
A: The Activity was “Active”.

Q: What about the Tmax [3] of the same compound?
A: The Tmax was 30 min.

Q: And the Cmax [4]?
A: Its Cmax is 77.8 µg/mL.

Q: What about the Activity [5] of the same compound?
A: Its Activity is over 38.8%.

Q: And the MRT last [6]?
A: The MRT last was 67.8 min.

Q: What about the Activity (Mus musculus [7]) of the same compound?
A: The Activity was “Active”.

Q: What about the Activity (Mus musculus [8]) of the same compound?
A: Its Activity is 34.6%.

Q: With `CC(C)(Oc1ccc(CCN(CC2CCCCC2)C(=O)Nc2ccc(F)cc2F)cc1)C(=O)O` as the compound, how does the Selectivity ratio (Homo sapiens) read?
A: The Selectivity ratio was 10.

Q: For `CC(C)(Oc1ccc(N(CC2CCCCC2)C(=O)Nc2nc3ccccc3s2)cc1)C(=O)O`, which Activity [5] is on record?
A: The Activity was over 38.8%.

Q: With `CC(C)Oc1cc(OCCc2ccsc2)cc(C(=O)Nc2ccc(C(=O)O)cn2)c1` as the compound, how does the Activity (Mus musculus [9]) read?
A: Its Activity is 24.4%.

Q: What about the Activity (Mus musculus [2]) of the same compound?
A: The Activity was 29.7%.

Q: And the Activity (Mus musculus [7])?
A: Its Activity is 41.8%.

Q: With `CCOC(=O)C(C)(C)Oc1ccc(N(Cc2ccco2)C(=O)Nc2nccs2)cc1` as the compound, how does the Activity [10] read?
A: The Activity was “Active”.

Q: With `CCOC(=O)C(C)(C)Oc1ccc(N(CC=C(C)C)C(=O)Nc2nccs2)cc1` as the compound, how does the Activity [10] read?
A: Its Activity is “Active”.

Q: For `CCCCCN(C(=O)Nc1nccs1)c1ccc(OC(C)(C)C(=O)OCC)cc1`, which Activity [5] is on record?
A: Its Activity is over 38.8%.

Q: What about the Activity (Mus musculus [8]) of the same compound?
A: Its Activity is 10%.

Q: For `CC(C)(Oc1ccc(N(Cc2cccc(F)c2)C(=O)Nc2nc3ccccc3s2)cc1)C(=O)O`, which Activity [10] is on record?
A: The Activity was “Active”.

Q: With `C=CCN(C(=O)Nc1nccs1)c1ccc(OC(C)(C)C(=O)OCC)cc1` as the compound, how does the Activity [5] read?
A: The Activity was over 38.8%.

Q: With `CCCCCN(C(=O)Nc1nc2ccc(C)cc2s1)c1ccc(OC(C)(C)C(=O)O)cc1` as the compound, how does the Activity (Mus musculus [9]) read?
A: Its Activity is 20%.

Q: And the Activity [5]?
A: Its Activity is over 38.8%.

Q: And the Activity (Mus musculus [7])?
A: The Activity was 22.6%.

Q: For `CCCN(C(=O)Nc1nc2ccc(C)cc2s1)c1ccc(OC(C)(C)C(=O)O)cc1`, which Activity [10] is on record?
A: Its Activity is “Active”.

Q: For `CC(C)CCN(C(=O)Nc1nc2ccccc2s1)c1ccc(OC(C)(C)C(=O)O)cc1`, which Activity [10] is on record?
A: The Activity was “Active”.
